Publication PMC5047629, “Synthesis, Pharmacological Profile and Docking Studies of New Sulfonamides Designed as Phosphodiesterase-4 Inhibitors” (PLoS ONE, 2016)

Key:
PDE4A = target: T1, PDE4A (Homo sapiens, UniProt P27815); assay: PDE4A inhibition, IMAP fluorescence polarization protocol; assay type: biochemical; details: 1 μM; mean ± SEM, 3 experiments
T1 construct: purchased MDS PHARMA
Method: (§1) The enzymatic reactions were carried at room temperature in a 96-well black plate by co-incubating 25 μL of 200 nM FAM-cAMP (R7513), 5 μL of putative inhibitory compounds and 20 μL of the PDE4 isoform dissolved in assay buffer (R7364) for 1 h. All enzymes were obtained from human recombinant sources (MDS PHARMA), whereas the other reagents were purchased from Molecular Devices. […] PDE4 inhibitors were dissolved in dimethyl sulfoxide (DMSO) at a final concentration of 0.1%.
(§2) The inhibitory activities of the new sulfonamide derivatives were evaluated for their selectivity against the four isoforms of human PDE4, i.e. PDE4A, PDE4B, PDE4C, and PDE4D, using an IMAP-FP protocol.

PDE4B = target: T2, PDE4B (Homo sapiens, UniProt Q07343); assay: PDE4B inhibition, IMAP fluorescence polarization protocol; assay type: biochemical; details: 1 μM, mean ± SEM, 3 experiments; for inhibition at 1 µM: read-out: PDE4B1 inhibition
T2 construct: purchased MDS PHARMA
T2 sequence (Q07343 whole entry): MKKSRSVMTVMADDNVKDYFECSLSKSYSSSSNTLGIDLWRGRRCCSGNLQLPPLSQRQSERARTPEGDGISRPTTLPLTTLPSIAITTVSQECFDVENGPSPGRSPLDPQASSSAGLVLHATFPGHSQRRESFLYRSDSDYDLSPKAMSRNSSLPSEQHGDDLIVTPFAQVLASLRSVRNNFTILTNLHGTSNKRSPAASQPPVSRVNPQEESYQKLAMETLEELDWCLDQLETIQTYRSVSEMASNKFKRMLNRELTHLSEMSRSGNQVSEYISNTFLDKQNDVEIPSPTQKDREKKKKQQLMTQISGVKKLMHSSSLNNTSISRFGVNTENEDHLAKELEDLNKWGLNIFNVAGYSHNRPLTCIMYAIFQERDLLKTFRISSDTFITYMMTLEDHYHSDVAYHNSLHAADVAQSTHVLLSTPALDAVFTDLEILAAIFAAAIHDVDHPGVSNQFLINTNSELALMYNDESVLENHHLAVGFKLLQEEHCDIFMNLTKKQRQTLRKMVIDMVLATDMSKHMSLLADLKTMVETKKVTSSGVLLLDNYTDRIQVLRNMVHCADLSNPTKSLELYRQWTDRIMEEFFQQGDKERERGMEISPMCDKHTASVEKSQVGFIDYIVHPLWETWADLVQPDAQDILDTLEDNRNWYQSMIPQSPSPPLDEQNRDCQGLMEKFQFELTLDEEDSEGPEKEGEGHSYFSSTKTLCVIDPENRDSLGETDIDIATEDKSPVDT
Method: as §1, §2

PDE4C = target: T3, PDE4C (Homo sapiens, UniProt Q08493); assay: PDE4C inhibition, IMAP fluorescence polarization protocol; assay type: biochemical; details: 1 μM; mean ± SEM, 3 experiments
T3 construct: purchased MDS PHARMA
T3 sequence (Q08493 whole entry): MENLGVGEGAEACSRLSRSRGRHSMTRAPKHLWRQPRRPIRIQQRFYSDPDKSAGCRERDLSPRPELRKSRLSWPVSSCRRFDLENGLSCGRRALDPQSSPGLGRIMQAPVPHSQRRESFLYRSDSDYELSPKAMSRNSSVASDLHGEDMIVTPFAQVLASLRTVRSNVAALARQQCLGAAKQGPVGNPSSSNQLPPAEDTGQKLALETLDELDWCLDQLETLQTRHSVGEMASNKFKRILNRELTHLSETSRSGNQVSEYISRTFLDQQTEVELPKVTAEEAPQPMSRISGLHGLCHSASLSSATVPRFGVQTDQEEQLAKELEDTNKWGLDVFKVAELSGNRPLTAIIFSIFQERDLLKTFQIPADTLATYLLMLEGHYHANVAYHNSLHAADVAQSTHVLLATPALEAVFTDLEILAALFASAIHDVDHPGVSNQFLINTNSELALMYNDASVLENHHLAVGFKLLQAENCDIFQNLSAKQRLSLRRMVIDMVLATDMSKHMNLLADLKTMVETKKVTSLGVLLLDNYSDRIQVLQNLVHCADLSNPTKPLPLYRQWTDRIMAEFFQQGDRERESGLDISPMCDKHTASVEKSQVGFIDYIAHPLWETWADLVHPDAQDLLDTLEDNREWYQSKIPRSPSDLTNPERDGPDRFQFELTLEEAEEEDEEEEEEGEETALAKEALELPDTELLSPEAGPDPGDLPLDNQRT
Method: as §1, §2

PDE4D = target: T4, PDE4D (Homo sapiens, UniProt Q08499); assay: PDE4D inhibition, IMAP fluorescence polarization protocol; assay type: biochemical; details: 1 μM, mean ± SEM, 3 experiments; for inhibition at 1 µM: read-out: PDE4D3 inhibition
T4 construct: purchased MDS PHARMA
T4 sequence (Q08499 1-673 isoform Q08499-2): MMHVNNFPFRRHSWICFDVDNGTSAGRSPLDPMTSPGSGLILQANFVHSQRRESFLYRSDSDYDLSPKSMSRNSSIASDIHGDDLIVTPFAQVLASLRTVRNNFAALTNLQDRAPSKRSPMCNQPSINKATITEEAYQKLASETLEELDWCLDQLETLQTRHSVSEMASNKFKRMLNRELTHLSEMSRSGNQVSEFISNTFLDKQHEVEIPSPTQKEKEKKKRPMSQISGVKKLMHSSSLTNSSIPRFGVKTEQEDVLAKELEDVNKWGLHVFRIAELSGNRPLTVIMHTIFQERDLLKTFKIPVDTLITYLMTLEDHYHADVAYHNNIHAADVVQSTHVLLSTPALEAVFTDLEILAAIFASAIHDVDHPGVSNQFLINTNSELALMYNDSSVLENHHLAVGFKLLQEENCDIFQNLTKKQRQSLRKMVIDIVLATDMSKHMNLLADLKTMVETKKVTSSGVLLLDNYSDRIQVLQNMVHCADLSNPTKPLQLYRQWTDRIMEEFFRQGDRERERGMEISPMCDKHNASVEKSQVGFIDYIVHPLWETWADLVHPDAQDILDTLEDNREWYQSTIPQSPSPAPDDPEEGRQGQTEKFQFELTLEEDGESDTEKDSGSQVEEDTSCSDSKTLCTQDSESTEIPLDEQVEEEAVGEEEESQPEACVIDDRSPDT
Method: as §1, §2

A/J mice [1] = assay: Murine model of asthma with 4 weekly OVA provocations (days 14, 21, 28, 35), interventional treatment; assay type: in vivo; details: LASSBio-448 100 mg/Kg oral
Method: Sensitization was performed by means of a subcutaneous injection of 50 μg ovalbumin (OVA) (grade V; Sigma-Aldrich, St. Louis, MO) adsorbed to 5 mg of Al(OH)3 in 0.2 mL of sterile 0.9% NaCl (saline) at days 0 and 14. Intranasal OVA provocations (25 μg /25 μL saline) were performed at 19 and 20 days post-sensitization under isofluorane volatile anaesthesia (Cristalia, São Paulo, Brazil). Alternatively, sensitization as described above were done at days 0 and 7, while the OVA provocations were carried out at days 14, 21, 28 and 35 [39]. Negative control groups were represented by sensitized mice in which allergen was replaced by saline as a challenge. Treatments were done orally 1 h before provocations. Test compounds were dissolved in saline containing 0.2% Tween 80. All solutions were freshly prepared immediately before use. Analyses were performed 24 h after the last provocation.
Airflow and transpulmonary pressure were recorded with a Buxco pulmonary mechanics processing system (Buxco Electronics, Sharon, CT), which calculated resistance (cmH2O.s/ml) and dynamic lung compliance (mL/cmH2O) in each breath cycle. Elastance was calculated as the inverse of compliance values. Mice were anesthetized with nembutal (60 mg/kg), and the neuromuscular activity was blocked with bromide pancuronium (1 mg/kg). Animals were allowed to stabilize for 5 min and increasing concentrations of methacholine (3–27 mg/mL) were aerosolized for 5 min each. Baseline pulmonary parameters were assessed with aerosolized phosphate buffer solution (PBS).
The EPO activity present in lung tissue was determined with a colorimetric assay as described by Strath et al. (1985), with minor modifications. Briefly, the lungs were cannulated and perfused with saline/EDTA (20 mM). Then, lung samples were homogenized in buffer solution containing 0.5% HBSS (Hank´s balanced solution, pH 7.4; Sigma Chemical Co.) using a tissue homogenizer (T25 ultra-Tirrax). Samples were centrifuged at 1300 xg for 10 min at 4°C. Red blood cells were removed by hypotonic and hypertonic lysis. The suspended cells were then centrifuged again at 1300 xg for 10 min at 4°C. The pellet was then suspended in a solution of HBSS containing 0.5% of HTAB (hexadecyltrimethylamonium bromide; Sigma Chemical Co.) (pH 7.4). This suspension was subjected to heat shock for lysing the cells in three cycles freeze/thawed. At the end, the supernatants were collected, centrifuged at 12000 rpm for 15 min at 4°C and assayed spectrophotometrically for EPO determination. Fifty μl of the samples were placed, and then 50 μl of the substrate (1.5 mM o-phenylenediamine and 6.6 mM hydrogen peroxide in 0.05 mM Tris-HCl buffer, pH 8.0) was added and, after a 30 min incubation at room temperature, 50 μl of H2SO4 (4M) was added to stop the reaction. The optical density reading was performed on the SpectraMax M5 spectrophotometer (Molecular Devices) at a wavelength of 492 nm.
Right lungs tissue samples from saline- and OVA-exposed mice were homogenized in PBS containing 0.05% Triton X-100 and a protease inhibitor cocktail (Complete®, Hoffmann-La Roche Ltd, Basel, Switzerland). After centrifugation at 13000xg for 10 min and 4°C, the levels of IL-13, IL-5, IL-4 and eotaxin-2 were quantified in the supernatant, using commercially available ELISA kits (DuoSet; R&D Systems, Minneapolis, MN, USA). The results were expressed as picograms of cytokine per right lung.

A/J mice [2] = assay: Duration of xylazine/ketamine anesthesia (behavioral correlate of emesis); assay type: in vivo
Method: This assessment was carried out as previously reported. […] The animals were placed in dorsal position and their spontaneous return to the prone position was used as an endpoint to determine anesthesia duration.

[3] = rolipram 10 mg/Kg oral, right lung, 24 h after last challenge, vs vehicle, Fig 8

T1 sequence (P27815 1-647 isoform P27815-4): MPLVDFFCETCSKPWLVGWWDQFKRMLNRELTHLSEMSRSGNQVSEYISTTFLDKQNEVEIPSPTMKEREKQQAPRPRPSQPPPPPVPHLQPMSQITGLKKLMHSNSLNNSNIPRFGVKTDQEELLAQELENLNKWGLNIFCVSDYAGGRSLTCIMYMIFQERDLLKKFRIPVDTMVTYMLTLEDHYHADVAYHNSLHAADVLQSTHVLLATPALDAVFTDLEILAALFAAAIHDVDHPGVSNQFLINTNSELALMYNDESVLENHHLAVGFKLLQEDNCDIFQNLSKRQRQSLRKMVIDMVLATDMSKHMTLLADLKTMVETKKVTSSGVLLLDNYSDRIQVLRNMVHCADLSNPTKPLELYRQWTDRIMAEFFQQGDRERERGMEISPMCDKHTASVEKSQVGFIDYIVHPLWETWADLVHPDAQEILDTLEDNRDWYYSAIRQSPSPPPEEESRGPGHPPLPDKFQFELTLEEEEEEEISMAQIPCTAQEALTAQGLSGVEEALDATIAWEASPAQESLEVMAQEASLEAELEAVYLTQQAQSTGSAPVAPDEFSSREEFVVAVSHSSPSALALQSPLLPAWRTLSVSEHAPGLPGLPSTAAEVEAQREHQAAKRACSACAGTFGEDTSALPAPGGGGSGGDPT

| PDE4A1A inhibition (PDE4A) | PDE4B1 inhibition (PDE4B) | inhibition at 1 µM (PDE4C) | PDE4D3 inhibition (PDE4D) | inhibition at 1 µM (PDE4D) | melting point | SMILES | other results |
| --- | --- | --- | --- | --- | --- | --- | --- |
| Inactive | Inactive | 4.1% | only a marginal activity | 37.4 ± 3.9% | 67 to 68 °C | COc1ccc(CCN(C)S(=O)(=O)c2ccccc2)cc1OC [6g (LASSBio-982), N-(3,4-dimethoxyphenethyl)-N-methylbenzenesulfonamide] |  |
| Inactive | Inactive | 9.7 ± 3.3% |  | 19.3 ± 4% | 86 to 88 °C | COc1ccc(CCNS(=O)(=O)c2ccccc2)cc1OC [6f (LASSBio-965), N-(3,4-dimethoxyphenethyl)benzenesulfonamide] |  |
| Inactive | Inactive | 9.7 ± 0.8% | only a marginal activity | 67.6 ± 2.6% | 64 to 65 °C | C=CCN(CCc1ccc(OC)c(OC)c1)S(=O)(=O)c1ccccc1 [6i (LASSBio-983), N-(3,4-dimethoxyphenethyl)-N-allylbenzenesulfonamide] |  |
| Inactive |  | 16.3 ± 1% | only a marginal activity | 62.9 ± 3.8% | 73 to 74 °C | COc1ccc(CCNS(C)(=O)=O)cc1OC [6j (LASSBio-985), N-(3,4-dimethoxyphenethyl)methanesulfonamide] | inhibition at 1 µM (PDE4B): 12.6 ± 2.1% |

Further lines, the compound ahead of its results:

| SMILES | PDE4A1A inhibition (PDE4A) | PDE4B1 inhibition (PDE4B) | inhibition at 1 µM (PDE4C) | PDE4D3 inhibition (PDE4D) | inhibition at 1 µM (PDE4D) | melting point | other results |
| --- | --- | --- | --- | --- | --- | --- | --- |
| COc1ccc(CCN(C)S(=O)(=O)c2cc3c(cc2C)OCO3)cc1OC [6b (LASSBio-959), N-(3,4-dimethoxyphenethyl)-N-6-dimethylbenzo[d][1, 3]dioxole-5-sulfonamide] | Inactive | Inactive | 5.6 ± 1% | only a marginal activity | 42.4 ± 3.5% | 92 to 94 °C |  |
| COc1ccc(CCN(Cc2ccccc2)S(=O)(=O)c2ccccc2)cc1OC [6h (LASSBio-984), N-(3,4-dimethoxyphenethyl)-N-benzylbenzenesulfonamide] | Inactive |  | 9.8 ± 1.7% |  | 14.3 ± 5.4% | 82 to 84 °C | inhibition at 1 µM (PDE4B): 5 ± 0.6% |
| C=CCN(CCc1ccc(OC)c(OC)c1)S(=O)(=O)c1cc2c(cc1C)OCO2 [6d (LASSBio-961), N-(3,4-dimethoxyphenethyl)-N-allyl-6-methylbenzo[d][1, 3]dioxole-5-sulfonamide] | Inactive | Inactive | 6.3 ± 4.1% | only a marginal activity | 40.4 ± 4.5% | 74 to 76 °C |  |
| COc1ccc(CCN(C)S(C)(=O)=O)cc1OC [6k (LASSBio-1271), N-(3,4-dimethoxyphenethyl)-N-methylmethanesulfonamide] | Inactive | Inactive |  | Inactive |  | 48 to 49 °C | PDE4C inhibition (PDE4C): Inactive |
| COc1ccc(CCN(Cc2ccccc2)S(=O)(=O)c2cc3c(cc2C)OCO3)cc1OC [6c (LASSBio-960), N-(3,4-dimethoxyphenethyl)-N-benzyl-6-methylbenzo[d][1, 3]dioxole-5-sulfonamide] | Inactive | Inactive | 2 ± 0.8% |  | 21.6 ± 4.5% | 119 to 121 °C |  |
| COc1ccc(CCN(C2CCCC2)S(=O)(=O)c2cc3c(cc2C)OCO3)cc1OC [6e (LASSBio-962), N-(3,4-dimethoxyphenethyl)-N-cyclopentyl-6-methylbenzo[d][1, 3]dioxole-5-sulfonamide] | Inactive | Inactive | 7.6 ± 1.1% |  | 23.6 ± 2.2% |  |  |
| COc1ccc(C2CNC(=O)C2)cc1OC1CCCC1 (stereo not shown) [1 (Rolipram), rolipram, reference compound] |  |  |  |  |  |  | airway hyper-reactivity to methacholine, airway resistance (A/J mice [1]; rolipram 10 mg/Kg oral, Fig 7A): equally effective in inhibiting; airway hyper-reactivity to methacholine, lung elastance (A/J mice [1]; rolipram 10 mg/Kg oral, Fig 7B): equally effective in inhibiting; IL-4 level in lung tissue (A/J mice [1]; [3]): reduction in the levels; IL-5 level in lung tissue (A/J mice [1]; [3]): reduction in the levels; IL-13 level in lung tissue (A/J mice [1]; [3]): reduction in the levels; eotaxin-2 level in lung tissue (A/J mice [1]; [3]): reduction in the levels; allergen-induced eosinophil accumulation in the lung tissue (eosinophil peroxidase) (A/J mice [1]; rolipram 10 mg/kg oral, at third and fourth weeks of challenge, Fig 5): impair the progress; reduction of sleep time (duration of xylazine/ketamine anesthesia) (A/J mice [2]; 3.5 μmol/Kg oral): 30%; reduction of sleep time (duration of xylazine/ketamine anesthesia) (A/J mice [2]; 11 μmol/Kg oral): 38.5%; reduction of sleep time (duration of xylazine/ketamine anesthesia) (A/J mice [2]; 36 μmol/Kg oral): 40.8% |
| Cc1cc2c(cc1S(=O)(=O)NCCc1ccccc1)OCO2 [5 (LASSBio-964), 6-methyl-N-phenethylbenzo[d][1, 3]dioxole-5-sulfonamide] | Inactive | Inactive | 3.9 ± 2.9% | only a marginal activity | 33.5 ± 4.5% | 88 to 89 °C |  |
